Assays:
Assay type in all cases: cell-based
[1] = tested on: HCT116 colorectal cancer cells; experiment: Western blot of EMT markers and CCR3 in HCT116 cells; conditions: HCT116 cells stably transfected with GFP or CCL7, with or without SB328437; Western blot (FIG. 5D)
Description: For the Western blot, lysates from transfected HCT116 cells were obtained using Pro-prep buffer (Intron Biotechnology, Seoul, Korea), including protease inhibitors. 20-60 μg the protein extract was resolved by SDS-PAGE and transferred to polyvinylidene fluoride (PVDF) membranes and probed with antibodies against CCR1, CCR2, CCR3, CCR5, CCL7, and β-actin, as a loading control. Secondary antibodies conjugated to horseradish peroxidase were used to image the membrane.
HCT116 colorectal cancer cells were transfected with siRNA to lower expression of the CCL7 gene, and protein expression of CCL7, E-cadherin, Snail, vimentin, twist, and β-actin, as a loading control, was determined by Western blot analysis.
HCT116 colorectal cancer cells were also treated with anti-CCL7 antibodies and the CCR3 expression in cell extracts was determined via Western blot analysis.
HCT116 colorectal cancer cells were stably transfected with GFP (control) or CCL7 and the expression of E-cadherin, α-SMA, vimentin, twist, and β-actin, as a loading control, was determined via Western blot analysis.

[2] = tested on: HCT116 colorectal cancer cells; experiment: Transwell migration and matrigel invasion assay of HCT116 cells; conditions: GFP and CCL7 transfected HCT116 treated with SB328437 (FIG. 6C)
Description: To explore the role of CCL7 on migration and invasion of cancer cells, HCT116 colorectal cancer cells were transiently transfected with siRNA to the CCL7 gene or stably transfected with GFP (control) or CCL7. The cells (5×10^4) were loaded into the migration and invasion chambers in a 24-well plate in serum-free RPMI media. The lower chambers were supplemented with 10% FBS and the cells were incubated for 24 or 48 hours. The cells were stained with calcein or hematoxylin-eosin and mounted. Cell migration and invasion was quantified via fluorescence.

[3] = tested on: HCT116 colorectal cancer cells; experiment: Western blot of ERK/JNK activation (pERK, pJNK) in HCT116 cells; conditions: stably transfected HCT116, 20 μM SB328437 (FIG. 7B)
Description: To explore the role of CCL7 signaling and CCR3 in the EMT-related pathway, activation of ERK and JNK was measured. HCT116 colorectal cancer cells were transiently transfected with siRNA against CCL7 or stably transfected with GFP (control) or CCL7. The stably transfected cells were incubated in the presence or absence of 20 μM SB328437. Cell lysates were obtained as above and assayed via Western blot analysis for pERK, total ERK, pJNK, total JNK, and β-actin.

COC(=O)[C@H](Cc1ccc([N+](=O)[O-])cc1)NC(=O)c1cccc2ccccc12 [SB328437]
effect of CCL7 overexpression (reduced E-cadherin, increased α-SMA, vimentin, twist) [1]: blocked | CCL7-induced migration and invasion of the colorectal cancer cells [2]: blocked | phosphorylation of ERK and JNK increased by CCL7 overexpression [3]: inhibited
